# According to patent US6796966B2, “Apparatus, and kits for preventing of alleviating vasoconstriction or vasospasm in a mammal” (priority 1997, dated 2004):
# Bridges are numbered along the chain shown (N, C = ends). Where no end group is shown, it is not given here.
# Legend:
# [1] = in the presence of oxygen; cited from earlier work
# basilar artery = experiment: Reversal of endothelin-1-induced cerebral vasoconstriction; suffusion of exposed basilar artery in sCSF, video microscopy; format: in vivo, New Zealand White rabbits
# cerebral vasospasm = experiment: ITSNP therapy for alleviation and prevention of cerebral vasospasm after aneurysmal SAH, 16 patients; format: in vivo, human; details: pre-therapy administration
# [2] = ET-1 100 nanomolar in sCSF, 1 milliliter per minute, Groups 4, 5, 6, n=38
compound,measurement,setting,value
"[N]=O [NO, nitric oxide]",half-life in vivo,[1],measured in seconds
"O=[N+]([O-])OCC(CO[N+](=O)[O-])O[N+](=O)[O-] [NTG, nitroglycerine]","change in baseline diameter of the basilar artery, substance alone","basilar artery; rabbit, in vivo",did not produce changes
same,reversal of ET-1-induced vasoconstriction,"basilar artery; rabbit, in vivo",rapid and pronounced vasodilation
Cc1nccn1CC1CCc2c(c3ccccc3n2C)C1=O (stereo not drawn) [ondansetron],effect on nausea associated with ITSNP therapy,cerebral vasospasm,abolished
"Endothelin-1 (CSCSSLMDKECVYFCHLDIIW; disulfide 1-15, 3-11; ends not checked; UniProt P05305 53-73, looked up) [ET-1]","reduction of arterial diameter began, after starting the delivery",basilar artery; [2],5 to 8 min
same,reduction of arterial diameter complete within,basilar artery; [2],20 to 30 min
same,"average minimal diameter, % of baseline diameter",basilar artery; ET-1 100 nanomolar suffusion,50.4%
same,average minimal diameter of the artery,"basilar artery; ET-1 100 nanomolar suffusion, baseline 992 microns",500 microns
same,return to baseline diameter after ET-1 when followed by sCSF alone,"basilar artery; Group 4, n=15",> 30 min
